Laboratory results as given in patent US5017687A, “Peptides for the detection of HTLV-1 infection” (Virovahl, S.A., priority 1988, dated 1991).
Several values for one entry are separate records, joined by “and”; a condition that tells them apart may be missing. Identical values can stand only once. Ends that are not written are not given here.

Assays:
[1] = test system: HTLV-1 positive serum samples; assay: immunoreactivity screening of eight synthesized peptides A-H with HTLV-1 positive sera; format: binding, human
Excerpt: The four peptides were selected from among eight different synthesized peptides designated A-H which correspond to the HTLV-1 envelope glycoprotein. These peptides were selected using various criteria similar to the selection of useful HIV-1 or HIV-2 peptides, e.g. proximity to or containing a cysteine residue (location of cysteine in similar proteins from related organisms being relatively invariant) and proximity to glycosylation sites. Although such criteria for selection of peptides can rule out potentially nonuseful peptides and indicate potentially useful peptides, further testing was required to identify which of the eight peptides would display immunoreactivity to HTLV-1 positive serum samples. The eight peptides were synthesized in the priority A through H with the […] believed to be least antigenic based on the above-criteria.

antibodies to HTLV-1 [2] = assay: ELISA immunologic reactivity of peptides gpAHTLV-1, gpBHTLV-1 and gpCHTLV-1 with human sera (Table 2); format: binding; details: for Mean O.D.405 of Negative Sera / cut off = Mean O.D.405 of Negative Sera + 6 × S.D.: negative sera of Table 2; for confirmed positive HTLV-1 serum samples reacted with peptide: reactive/tested, 6 HTLV-1 positive sera
Protocol: (§1) Polylysine at a concentration of 1 mg/ml was added to the microtiter plates and allowed to incubate for 30 minutes. The polylysine was then discarded and peptide gpAHTLV-1 was added to the wells in a concentration of 10 to 100 μg/ml for coating. After the peptide incubated in the well for a length of time sufficient to allow the peptide to become bonded to the well, the peptide solution was removed and a solution of glutaraldehyde, which stabilizes the peptide attachment to the wells, was added for 15 minutes. The glutaraldehyde solution was then removed, the wells washed with buffer, and a mixture of glycine and bovine serum albumin (BSA) was added which served to block unbound sites in the wells and minimize spurious reactions during the ELISA test per se. After a final washing step, the plates were ready to use.
(§2) A convenient variation of known ELISA methods was used with the microtiter plates prepared as above. Serum samples from individuals which had been diluted 1:50 in PBS (phosphate buffered saline) containing 0.05% polyoxyethylenesorbitan monolaurate (Tween 20) and 1% BSA were added to each well and allowed to incubate for 90 minutes at 37° C. in a humidified atmosphere. The diluted serum samples were then removed from the plates and the wells washed three times with PBS containing 0.05% Tween 20. A conjugated anti-human immunoglobulin (Ig) antibody was then added to the wells and allowed to incubate for 90 minutes. The conjugated antibody was produced in a goat or rabbit and was specific for human IgG, IgM, immunoglobulin light chains, or combinations thereof. Preferably, alkaline-phophatase conjugated anti-human IgG (from Dakopatts) diluted 1:500 for use in PBS containing 0.05% Tween 20 and 1% BSA was used in the ELISA. After the conjugate had incubated a sufficient length of time to react with bound human antibodies, the plates were washed three times as above. In order to detect antibodies to HTLV-1 in the human serum that react with the peptide gpAHTLV-1 used as the antigen, (i.e. positive reactions), a chromogenic substrate, alkaline phosphatase substrate (Sigma Cat. No. 104 tablets) dissolved in a Na carbonate/MgCl2 buffer and adjusted to a concentration of 1 μg/ml which is cleaved by the alkaline phosphatase enzyme attached to the anti-human Ig antibody to yield a colored product, was added. After incubation for approximately 40 minutes at room temperature, positive reactions indicated the presence of antibodies in the sample reactive with the antigen. A yellow to orange to reddish-brown color in each well indicating a positive reaction, was read in a spectrophotometer at 405 nm to quantify the reaction. Spectrophotometric readings were adjusted to correct for background reactions.
Peptides gpAHTLV-1, gpBHTLV-1, gpCHTLV-1, synthesized as described in Example 1, were run in parallel ELISA tests as described in Example 2 against 6 serum samples positive for antibodies to HTLV-1, 8 serum samples positive for antibodies to HIV-1 and 10 blood donor sera negative for HIV-1/HIV-2.

[3] = storage stability of peptide-coated microtiter plates; format: physicochemical; details: peptide-coated microtiter plates stored for several months
Protocol: as §1

HTLV-1 patient sera = details: reactive/tested; Palker et al., 1986; cited from earlier work
antibodies to HTLV-1 [4] = assay: ELISA reactivity of gpHHTLV-1 with confirmed positive and true negative sera/CSF (Table 3); format: binding, human
Protocol: as §1, §2
Peptide gpHHTLV-1 having the amino acid sequence: […]OH was synthesized as described in Example 1 and used in an ELISA test as described in Example 2 to measure its immunologic reactivity against confirmed Japanese HTLV-sera and sera from U.S.A. and Europe from patients with Adult T-cell Leukemia Tropical Spastic Paraparesis (TSP) and cerebrospinal fluids (CSF).

antibodies to HTLV-1 [5] = assay: ELISA absorbance on Japanese HTLV-1 sera using gpHHTLV-1 (Table 4); format: binding, human; details: serum 1248, negative control, Western blot -; diluted 1/50
Protocol: as §1
(§3) A convenient variation of known ELISA methods was used with the microtiter plates prepared as above. […] A yellow to orange to reddish-brown color in each well indicating a positive reaction, was read in a spectrophotometer at 405 nm to quantify the reaction. Spectrophotometric readings were adjusted to correct for background reactions.
Absorbance values on Japanese HTLV-1 sera were measured in ELISA using gpHHTLV-1 as well as Du-Pont HTLV-1 ELISA and Western blot. […]

antibodies to HTLV-1 [6] = assay: ELISA absorbance on sera and CSF from patients with ATL and TSP using gpHHTLV-1 (Table 5); format: binding, human; details: neg CSF 8, 19, 21; diluted 1/20
Protocol: as §1, §3
Absorbance values on sera and CSF from patients with ATL and TSP were measured in ELISA using gpHHTLV-1 sera diluted 1/50, CSF sera was diluted 1/20.

[7] = test system: sera from HTLV-1 positive patients; details: reactive/tested; Copeland et al., 1986; cited from earlier work

With “Gly-Leu-Asp-Leu-Leu-Phe-Trp-Glu-Gln-Gly-Gly-Leu-Cys-Lys-Ala-Leu-Gln-Glu-Gln-Cys-Arg-Phe-Pro-Asn-Cys-OH (GLDLLFWEQGGLCKALQEQCRFPNC-OH; cysteine pairing not given here) [gpAHTLV-1]” the “usefulness for diagnosis of HTLV-1 infection (in words)” value (from here on “usefulness for diagnosis”) [1] was “useful for diagnosis of HTLV-1 infection”, the “Mean O.D.405 of Negative Sera” value (antibodies to HTLV-1 [2]) was 0.124 O.D.405 and the “cut off = Mean O.D.405 of Negative Sera + 6 × S.D.” value (antibodies to HTLV-1 [2]) was 0.490 O.D.405. For the same substance, the “confirmed positive HTLV-1 serum samples reacted with peptide” value (antibodies to HTLV-1 [2]) was 6/6 and the “antigenic activity of coated peptide after storage (in words)” value [3] was “without any decrease in antigenic activity”.
For “X-Trp-Thr-His-Cys-Phe-Asp-Pro-Gln-Ile-Gln--Ala-Ile-Val-Ser-Ser-Pro-Cys-His-Asn-Ile-Leu-Y-Z (WTHCFDPQIQAIVSSPCHNIL; not fully specified (N-terminus, C-terminus); cysteine pairing not given here; also: end groups X, Y, Z left open in the general formula) [gpBHTLV-1]”, the “usefulness for diagnosis” value [1] was “useful for diagnosis of HTLV-1 infection”, the “Mean O.D.405 of Negative Sera” value (antibodies to HTLV-1 [2]) was 0.088 O.D.405 and the “cut off = Mean O.D.405 of Negative Sera + 6 × S.D.” value (antibodies to HTLV-1 [2]) was 0.298 O.D.405. The “confirmed positive HTLV-1 serum samples reacted with peptide” value (antibodies to HTLV-1 [2]) was 5/6.
In the case of PYVEPTAPQVL [SP-71], the “HTLV-1 patient sera reacting in RIA” value (HTLV-1 patient sera) is given as 8/9.
For “Leu-Asn-Thr-Glu-Pro-Ser-Gln-Leu-Pro-Pro-Thr-Ala-Pro-Pro-Leu-Leu-Pro-His-Ser-Asn-Leu-Asp-His-Ile-Cys-OH (LNTEPSQLPPTAPPLLPHSNLDHIC-OH) [gpHHTLV-1]”, the “usefulness for diagnosis” value [1] was “useful for diagnosis of HTLV-1 infection”, the “Positive in ELISA” value (antibodies to HTLV-1 [4]; ATL CSF, positive/tested) was 1/1 and the “Positive in ELISA (percent)” value (antibodies to HTLV-1 [4]; Japanese HTLV-1 sera) was 69%. The “Positive in ELISA” value (antibodies to HTLV-1 [4]; Japanese HTLV-1 sera, positive/tested) was 22/32, the “Positive in ELISA” value (antibodies to HTLV-1 [4]; TSP CSF, positive/tested) was 4/4 and the “Positive in ELISA” value (antibodies to HTLV-1 [4]; TSP sera, positive/tested) was 4/4. For the same substance, the “known positive sera confirmed HTLV-1 positive (in words)” value (antibodies to HTLV-1 [4]; Table 3 as summarised in text) was “all known positive sera were confirmed HTLV-1 positive”, the “Positive in ELISA” value (antibodies to HTLV-1 [4]; true negative: 4 EB virus IgM positive sera) was 0/4 and the “Positive in ELISA” value (antibodies to HTLV-1 [4]; true negative: 4 Leukemia patients sera) was 0/4. The “Positive in ELISA” value (antibodies to HTLV-1 [4]; true negative: 4 Rheumatoid factor positive sera) was 0/4, the “Positive in ELISA” value (antibodies to HTLV-1 [4]; true negative: 4 Transplant recipients sera) was 0/4 and the “Positive in ELISA” value (antibodies to HTLV-1 [4]; true negative: 8 CSF (aseptic meningitis)) was 0/8. The “Positive in ELISA” value (antibodies to HTLV-1 [4]; true negative: 8 HIV-2 positive sera) was 0/8, the “Positive in ELISA” value (antibodies to HTLV-1 [4]; true negative: 28 blood donor sera) was 0/28 and the “Positive in ELISA” value (antibodies to HTLV-1 [4]; true negative: 30 HIV-1 positive sera) was 0/30. For the same substance, the “Absorbance values in gpHHTLV-1 ELISA” value (antibodies to HTLV-1 [5]) was 0.109 and the “gpHHTLV-1 ELISA absorbance” value (antibodies to HTLV-1 [6]) was 0.033 and 0.039 and 0.056.
In the case of “X-Tyr-Thr-Cys-Ile-Val-Cys-Ile-Asp-Arg-Ala-Ser-Leu-Ser-Thr-Trp-His-Val-Leu- Tyr-Ser-Pro-Y-Z (YTCIVCIDRASLSTWHVLYSP; not fully specified (N-terminus, C-terminus); cysteine pairing not given here; also: end groups X, Y, Z left open in the general formula) [gpCHTLV-1]”, the “usefulness for diagnosis” value [1] is reported as “useful for diagnosis of HTLV-1 infection”, the “Mean O.D.405 of Negative Sera” value (antibodies to HTLV-1 [2]) is reported as 0.116 O.D.405 and the “cut off = Mean O.D.405 of Negative Sera + 6 × S.D.” value (antibodies to HTLV-1 [2]) is reported as 0.368 O.D.405. For the same substance, the “confirmed positive HTLV-1 serum samples reacted with peptide” value (antibodies to HTLV-1 [2]) was 5/6.
In the case of “Pro-Pro-Phe-Ser-Leu-Ser-Pro-Val-Pro-Thr-Leu-NH2 (PPFSLSPVPTL-NH2) [SP-70]”, the “sera from HTLV-1 positive patients reacting” value [7] is given as 4/12.
